Laboratory results reported in PubChem BioAssay AID330 (DTP/NCI, 2004).
“And” between values parts separate entries of the source, which are not always exact repeats. Equal entries are not always repeated. Toxic doses and inconclusive results are not listed.

Test system: P388 leukemia ip, CD2F1 mice, survival T/C
Test: NCI In Vivo Anticancer Drug Screen. Data for tumor model P388 Leukemia (intraperitoneal) in CD2F1 (CDF1) mice
Settings: endpoint: median survival time, higher = longer survival
How it was run: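 Mice carrying the transplanted tumor received test compound or vehicle. Survival was recorded in each group, and the value is the treated-group measurement divided by that of the vehicle-treated control group.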

[1] = dose: 50.0 mg/kg/injection, schedule: Q01DX005 (ip), vehicle: saline with Tween-80
[2] = dose: 100.0 mg/kg/injection, schedule: Q01DX005 (ip), vehicle: saline with Tween-80
[3] = dose: 50.0 mg/kg/injection, schedule: Q01DX009 (ip), vehicle: Klucel (hydroxypropylcellulose) (HPC)
[4] = dose: 100.0 mg/kg/injection, schedule: Q01DX001 (ip), vehicle: Klucel (hydroxypropylcellulose) (HPC)
[5] = dose: 200.0 mg/kg/injection, schedule: Q01DX001 (ip), vehicle: Klucel (hydroxypropylcellulose) (HPC)
[6] = dose: 400.0 mg/kg/injection, schedule: Q01DX001 (ip), vehicle: Klucel (hydroxypropylcellulose) (HPC)
[7] = dose: 100.0 mg/kg/injection, schedule: Q01DX009 (ip), vehicle: Klucel (hydroxypropylcellulose) (HPC)
[8] = dose: 200.0 mg/kg/injection, schedule: Q01DX009 (ip), vehicle: Klucel (hydroxypropylcellulose) (HPC)

Compound: O=CC(CO)C(C=O)n1ncc2ccccc21 (stereo unspecified)
- T/C (dose: 4.0 mg/kg/injection, schedule: Q01DX009 (ip), vehicle: saline with Tween-80): 120 % of control
- T/C (dose: 8.0 mg/kg/injection, schedule: Q01DX001 (ip), vehicle: suspension in saline): 108 % of control
- T/C (dose: 16.0 mg/kg/injection, schedule: Q01DX001 (ip), vehicle: saline): 107 % of control
- T/C (dose: 16.0 mg/kg/injection, schedule: Q01DX001 (ip), vehicle: suspension in saline): 98 % of control
- T/C (dose: 16.0 mg/kg/injection, schedule: Q01DX009 (ip), vehicle: saline with Tween-80): 119 % of control
- T/C (dose: 32.0 mg/kg/injection, schedule: Q01DX001 (ip), vehicle: saline): 107 % of control and 116 % of control
- T/C (dose: 32.0 mg/kg/injection, schedule: Q01DX001 (ip), vehicle: suspension in saline): 94 % of control
- T/C (dose: 64.0 mg/kg/injection, schedule: Q01DX001 (ip), vehicle: saline): 172 % of control
- T/C (dose: 64.0 mg/kg/injection, schedule: Q01DX001 (ip), vehicle: suspension in saline): 108 % of control

Compound: C[Si](C)(C)CSCCO
- T/C [1]: 106 % of control
- T/C [2]: 104 % of control
- T/C (dose: 200.0 mg/kg/injection, schedule: Q01DX005 (ip), vehicle: saline with Tween-80): 100 % of control

Compound: CCSC(=S)S(=O)(=O)c1ccc(C)cc1
- T/C (dose: 12.5 mg/kg/injection, schedule: Q01DX009 (ip), vehicle: Klucel (hydroxypropylcellulose) (HPC)): 120 % of control
- T/C (dose: 25.0 mg/kg/injection, schedule: Q01DX009 (ip), vehicle: Klucel (hydroxypropylcellulose) (HPC)): 105 % of control
- T/C [3]: 115 % of control and 123 % of control

Compound: CC1=C[C@H]2[C@@]3(O)[C@H](C)[C@@H](OC(=O)c4ccccc4)[C@]4(OC(=O)c5ccccc5)[C@H]([C@@H]3C=C(COC(=O)c3ccccc3)C[C@]2(O)C1=O)C4(C)C
- T/C (dose: 20.0 micrograms/kg/injection, schedule: Q01DX009 (ip), vehicle: saline + alcohol): 100 % of control
- T/C (dose: 40.0 micrograms/kg/injection, schedule: Q01DX009 (ip), vehicle: saline + alcohol): 96 % of control
- T/C (dose: 80.0 micrograms/kg/injection, schedule: Q01DX009 (ip), vehicle: saline + alcohol): 102 % of control
- T/C (dose: 160.0 micrograms/kg/injection, schedule: Q01DX009 (ip), vehicle: saline + alcohol): 100 % of control
- T/C (dose: 320.0 micrograms/kg/injection, schedule: Q01DX009 (ip), vehicle: saline + alcohol): 94 % of control

Compound: CC(C)(C)OC(=O)NC(CCCCNC(=O)C(F)(F)F)C(=O)ON1C(=O)CCC1=O (stereo unspecified)
- T/C (dose: 50.0 mg/kg/injection, schedule: Q01DX009 (ip), vehicle: saline with Tween-80): 102 % of control
- T/C (dose: 100.0 mg/kg/injection, schedule: Q01DX009 (ip), vehicle: saline with Tween-80): 99 % of control
- T/C (dose: 200.0 mg/kg/injection, schedule: Q01DX009 (ip), vehicle: saline with Tween-80): 106 % of control

Compound: O=C1C(N2CC2)=C(N2CC2)C(=O)c2ncncc21
- T/C (dose: 2.5 mg/kg/injection, schedule: Q01DX005 (ip), vehicle: saline): 105 % of control
- T/C (dose: 5.0 mg/kg/injection, schedule: Q01DX005 (ip), vehicle: saline): 104 % of control and 113 % of control
- T/C (dose: 10.0 mg/kg/injection, schedule: Q01DX005 (ip), vehicle: saline): 107 % of control

Compound: Cc1cc(Cl)nc2ccc([N+](=O)[O-])cc12
- T/C (dose: 100.0 mg/kg/injection, schedule: Q04DX003 (ip), vehicle: saline): 92 % of control
- T/C (dose: 200.0 mg/kg/injection, schedule: Q04DX003 (ip), vehicle: saline): 94 % of control
- T/C (dose: 400.0 mg/kg/injection, schedule: Q04DX003 (ip), vehicle: saline): 91 % of control

Compound: Cc1ccc(S(=O)(=O)N/N=C2/C=CC3(CCCC3)CC2)cc1
- T/C (dose: 50.0 mg/kg/injection, schedule: Q01DX001 (ip), vehicle: Klucel (hydroxypropylcellulose) (HPC)): 88 % of control
- T/C [4]: 91 % of control
- T/C [5]: 88 % of control and 90 % of control
- T/C [6]: 89 % of control

Compound: COc1ccc2c(NCCCCCCCCNc3c4ccc(OC)cc4nc4cc([N+](=O)[O-])ccc34)c3ccc([N+](=O)[O-])cc3nc2c1
- T/C (dose: 0.63 mg/kg/injection, schedule: Q01DX009 (ip), vehicle: other): 88 % of control
- T/C (dose: 1.25 mg/kg/injection, schedule: Q01DX009 (ip), vehicle: other): 88 % of control
- T/C (dose: 2.5 mg/kg/injection, schedule: Q01DX009 (ip), vehicle: other): 119 % of control
- T/C (dose: 5.0 mg/kg/injection, schedule: Q01DX009 (ip), vehicle: other): 120 % of control
- T/C (dose: 10.0 mg/kg/injection, schedule: Q01DX009 (ip), vehicle: other): 121 % of control
- T/C (dose: 20.0 mg/kg/injection, schedule: Q01DX009 (ip), vehicle: other): 120 % of control

Compound: O=c1c(Cl)c(Cl)oc(Cl)c1Cl
- T/C [1]: 100 % of control
- T/C [2]: 98 % of control

Compound: COc1cc(NCCCC2CCCCN2)c2ncccc2c1OC (stereo unspecified)
- T/C (dose: 6.25 mg/kg/injection, schedule: Q01DX005 (ip), vehicle: saline): 103 % of control
- T/C (dose: 12.5 mg/kg/injection, schedule: Q01DX005 (ip), vehicle: saline): 101 % of control

Compound: CNC(=O)OCCC(OC(=O)NC)C1CCC2C3CC=C4CC(OC(C)=O)CCC4(C)C3CCC12C (stereo unspecified)
- T/C [4]: 103 % of control
- T/C [5]: 104 % of control
- T/C [6]: 110 % of control

Compound: c1cc(C2CO2)ccc1Oc1ccc(C2CO2)cc1 (stereo unspecified)
- T/C [3]: 103 % of control
- T/C [7]: 88 % of control
- T/C [8]: 93 % of control

Compound: COc1cc2ccc3c(c2cc1OC)N(C)C(OC)c1cc2c(cc1-3)OCO2 (stereo unspecified)
- T/C (dose: 10.0 mg/kg/injection, schedule: Q01DX009 (ip), vehicle: Klucel (hydroxypropylcellulose) (HPC)): 153 % of control
- T/C (dose: 40.0 mg/kg/injection, schedule: Q01DX009 (ip), vehicle: Klucel (hydroxypropylcellulose) (HPC)): 173 % of control
- T/C (dose: 80.0 mg/kg/injection, schedule: Q01DX009 (ip), vehicle: Klucel (hydroxypropylcellulose) (HPC)): 110 % of control

Compound: O=C1CC2(C(=O)N1CN1CCCCC1)c1ccccc1-c1ccccc12
- T/C [3]: 104 % of control and 106 % of control
- T/C [7]: 102 % of control and 115 % of control
- T/C [8]: 156 % of control

Compound: CCCCCCC(=O)/C=C/c1cccc(OCc2ccccc2)c1
- T/C (dose: 50.0 mg/kg/injection, schedule: Q01DX005 (ip), vehicle: Klucel (hydroxypropylcellulose) (HPC)): 90 % of control
- T/C (dose: 100.0 mg/kg/injection, schedule: Q01DX005 (ip), vehicle: Klucel (hydroxypropylcellulose) (HPC)): 87 % of control
- T/C (dose: 200.0 mg/kg/injection, schedule: Q01DX005 (ip), vehicle: Klucel (hydroxypropylcellulose) (HPC)): 94 % of control

Compound: C=C1C(=O)C23C(OC(=O)c4ccccc4)C1CCC2C12COC3(O)C(O)C1C(C)(C)CCC2O (stereo unspecified)
- T/C (dose: 3.75 mg/kg/injection, schedule: Q01DX009 (ip), vehicle: saline with Tween-80): 103 % of control and 107 % of control and 110 % of control
- T/C (dose: 7.5 mg/kg/injection, schedule: Q01DX009 (ip), vehicle: saline with Tween-80): 102 % of control and 112 % of control and 120 % of control
- T/C (dose: 15.0 mg/kg/injection, schedule: Q01DX009 (ip), vehicle: saline with Tween-80): 100 % of control and 118 % of control and 119 % of control
- T/C (dose: 30.0 mg/kg/injection, schedule: Q01DX009 (ip), vehicle: saline with Tween-80): 109 % of control and 115 % of control

Compound: C/C=C(\C)c1cc(=O)c2c(C)cc3c(c2o1)C(=O)c1c(O)c(C2CC(C)(N(C)C)C(O)C(C)O2)cc(C2CC(N(C)C)C(O)C(C)O2)c1C3=O (stereo unspecified)
- T/C (dose: 0.31 mg/kg/injection, schedule: Q01DX009 (ip), vehicle: saline): 100 % of control
- T/C (dose: 0.62 mg/kg/injection, schedule: Q01DX009 (ip), vehicle: saline): 153 % of control
- T/C (dose: 1.25 mg/kg/injection, schedule: Q01DX009 (ip), vehicle: saline): 91 % of control
- T/C (dose: 2.0 mg/kg/injection, schedule: Q01DX009 (ip), vehicle: Klucel (hydroxypropylcellulose) (HPC)): 118 % of control
- T/C (dose: 2.0 mg/kg/injection, schedule: Q01DX009 (ip), vehicle: saline): 154 % of control
- T/C (dose: 3.0 mg/kg/injection, schedule: Q01DX009 (ip), vehicle: saline): 109 % of control
- T/C (dose: 5.0 mg/kg/injection, schedule: Q01DX009 (ip), vehicle: saline): 94 % of control
- T/C (dose: 6.25 mg/kg/injection, schedule: Q01DX009 (ip), vehicle: saline with Tween-80): 95 % of control

Compound: CC[N+](CC)(CC)CCOc1nc(OCC[N+](CC)(CC)CC)nc(OCC[N+](CC)(CC)CC)n1
- T/C (dose: 6.25 mg/kg/injection, schedule: Q01DX009 (ip), vehicle: saline): 100 % of control
- T/C (dose: 12.5 mg/kg/injection, schedule: Q01DX009 (ip), vehicle: saline): 100 % of control
- T/C (dose: 25.0 mg/kg/injection, schedule: Q01DX009 (ip), vehicle: saline): 100 % of control

Compound: FC(F)(F)c1cccc(C(OCC2CO2)(C(F)(F)F)C(F)(F)F)c1 (stereo unspecified)
- T/C [3]: 99 % of control
- T/C [7]: 96 % of control
- T/C [8]: 102 % of control
